In PubChem BioAssay AID2060510 (Molecular Pharmacology Branch, DTP, NCI, 2025):
pIC50: −log10 of the molar value.

Test system: 439559-082-T-J2-PDC spheroids viability
Experiment: Anticancer human tumor 439559-082-T-J2-PDC patient-derived colon adenocarcinoma cell line growth inhibition [GQUAD]
Conditions: for pIC50: curve of first compound; for viability, T/C: stronger effect = lower value
Method in brief: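 Tumor cells were grown as complex spheroids with HUVEC endothelial cells and mesenchymal stem cells as stroma. G-quadruplex stabilizers were combined with targeted agents over half-log dilutions from near the clinical Cmax, or from 10 microM.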

[1] = second compound 0.0316 µM, first compound 0.0316 µM
[2] = second compound 0.0316 µM, first compound 0.1 µM
[3] = second compound 0.0316 µM, first compound 0.316 µM
[4] = second compound 0.0316 µM, first compound 1 µM
[5] = second compound 0.0316 µM, first compound 3.16 µM
[6] = second compound 0.0316 µM, first compound 10 µM
[7] = second compound 0.1 µM, first compound 0.0316 µM
[8] = second compound 0.1 µM, first compound 0.1 µM
[9] = second compound 0.1 µM, first compound 0.316 µM
[10] = second compound 0.1 µM, first compound 1 µM
[11] = second compound 0.1 µM, first compound 3.16 µM
[12] = second compound 0.1 µM, first compound 10 µM
[13] = second compound 0.316 µM, first compound 0.0316 µM
[14] = second compound 0.316 µM, first compound 0.1 µM
[15] = second compound 0.316 µM, first compound 0.316 µM
[16] = second compound 0.316 µM, first compound 1 µM
[17] = second compound 0.316 µM, first compound 3.16 µM
[18] = second compound 0.316 µM, first compound 10 µM
[19] = second compound 1 µM, first compound 0.0316 µM
[20] = second compound 1 µM, first compound 0.1 µM
[21] = second compound 1 µM, first compound 0.316 µM
[22] = second compound 1 µM, first compound 1 µM
[23] = second compound 1 µM, first compound 3.16 µM
[24] = second compound 1 µM, first compound 10 µM
[25] = second compound 3.16 µM, first compound 0.0316 µM
[26] = second compound 3.16 µM, first compound 0.1 µM
[27] = second compound 3.16 µM, first compound 0.316 µM
[28] = second compound 3.16 µM, first compound 1 µM
[29] = second compound 3.16 µM, first compound 3.16 µM
[30] = second compound 3.16 µM, first compound 10 µM
[31] = second compound 10 µM, first compound 0.0316 µM
[32] = second compound 10 µM, first compound 0.1 µM
[33] = second compound 10 µM, first compound 0.316 µM
[34] = second compound 10 µM, first compound 1 µM
[35] = second compound 10 µM, first compound 3.16 µM
[36] = second compound 10 µM, first compound 10 µM
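Also: spheroids exposed to the agents for 7 days before readout.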
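For viability, T/C in this document: percent of luminescence signal in DMSO vehicle wells taken as 100% viability.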

With COc1cccc2c1C(=O)c1c(O)c3c(c(O)c1C2=O)CC(O)(C(=O)CO)CC3OC1CC(N)C(O)C(C)O1 (stereo unspecified) + Cc1[nH]c2ccc(F)cc2c1-c1nc2c3cccnc3c3ncccc3c2[nH]1 the pIC50 (second compound 0.0316 µM) was less than 5.00, the pIC50 (second compound 0.1 µM) was less than 5.00 and the pIC50 (second compound 0.316 µM) was less than 5.00. It also gave a pIC50 (second compound 1 µM) of less than 5.00, a pIC50 (second compound 3.16 µM) of 5.01 and a pIC50 (second compound 10 µM) of 5.28. It also gave a viability, T/C [1] of 98.5%, a viability, T/C [2] of 100% and a viability, T/C [3] of 96.2%. The viability, T/C [4] was 82.1%, the viability, T/C [5] was 61.5% and the viability, T/C [6] was 54.2%. The viability, T/C [7] was 107%, the viability, T/C [8] was 99% and the viability, T/C [9] was 89.1%. For the same compound, the viability, T/C [10] was 87.5%, the viability, T/C [11] was 69.5% and the viability, T/C [12] was 54.1%. For the same compound, the viability, T/C [13] was 98.9%, the viability, T/C [14] was 95.3% and the viability, T/C [15] was 85.9%. For the same compound, the viability, T/C [16] was 89.2%, the viability, T/C [17] was 62.7% and the viability, T/C [18] was 50.8%. For the same compound, the viability, T/C [19] was 87.9%, the viability, T/C [20] was 87% and the viability, T/C [21] was 82.1%. The viability, T/C [22] was 83.2%, the viability, T/C [23] was 67.3% and the viability, T/C [24] was 56.2%. It also gave a viability, T/C [25] of 80.4%, a viability, T/C [26] of 75% and a viability, T/C [27] of 85.2%. For the same compound, the viability, T/C [28] was 64.2%, the viability, T/C [29] was 63.3% and the viability, T/C [30] was 49.7%. The viability, T/C [31] was 92.3%, the viability, T/C [32] was 80.3% and the viability, T/C [33] was 69.8%. The viability, T/C [34] was 68.2%, the viability, T/C [35] was 53.2% and the viability, T/C [36] was 43.9%.
For C#Cc1c(F)ccc2cc(O)cc(-c3ncc4c(N5CC6CCC(C5)N6)nc(OCC56CCCN5CC(F)C6)nc4c3F)c12 (stereo unspecified) + CN(C)c1ccc(Nc2c3ccc(NC(=O)CCN4CCCC4)cc3nc3cc(NC(=O)CCN4CCCC4)ccc23)cc1, the pIC50 (second compound 0.0316 µM) was less than 5.00, the pIC50 (second compound 0.1 µM) was 5.41 and the pIC50 (second compound 0.316 µM) was 5.16. For the same compound, the pIC50 (second compound 1 µM) was less than 5.00, the pIC50 (second compound 3.16 µM) was 5.43 and the pIC50 (second compound 10 µM) was 5.50. The viability, T/C [1] was 83.6%, the viability, T/C [2] was 70.7% and the viability, T/C [3] was 66%. It also gave a viability, T/C [4] of 60.1%, a viability, T/C [5] of 56.1% and a viability, T/C [6] of 49.1%. It also gave a viability, T/C [7] of 94%, a viability, T/C [8] of 68.5% and a viability, T/C [9] of 73.1%. It also gave a viability, T/C [10] of 58.1%, a viability, T/C [11] of 54% and a viability, T/C [12] of 42.6%. For the same compound, the viability, T/C [13] was 79.3%, the viability, T/C [14] was 82.8% and the viability, T/C [15] was 62.2%. The viability, T/C [16] was 62%, the viability, T/C [17] was 55.5% and the viability, T/C [18] was 47.6%. It also gave a viability, T/C [19] of 91.5%, a viability, T/C [20] of 73.2% and a viability, T/C [21] of 64.6%. For the same compound, the viability, T/C [22] was 55.4%, the viability, T/C [23] was 61.8% and the viability, T/C [24] was 48.5%. For the same compound, the viability, T/C [25] was 81.9%, the viability, T/C [26] was 75.3% and the viability, T/C [27] was 69.1%. For the same compound, the viability, T/C [28] was 52.4%, the viability, T/C [29] was 55.2% and the viability, T/C [30] was 43.4%. It also gave a viability, T/C [31] of 84.4%, a viability, T/C [32] of 77.7% and a viability, T/C [33] of 62.5%. The viability, T/C [34] was 54.7%, the viability, T/C [35] was 56.4% and the viability, T/C [36] was 40.7%.
C=CC(=O)N1CCN(c2nc(=O)n(-c3c(C)ccnc3C(C)C)c3nc(-c4c(O)cccc4F)c(F)cc23)C(C)C1 (stereo unspecified) + Cc1[nH]c2ccc(F)cc2c1-c1nc2c3cccnc3c3ncccc3c2[nH]1 showed a pIC50 (second compound 0.0316 µM) of less than 5.00, a pIC50 (second compound 0.1 µM) of less than 5.00 and a pIC50 (second compound 0.316 µM) of less than 5.00. The pIC50 (second compound 1 µM) was less than 5.00, the pIC50 (second compound 3.16 µM) was less than 5.00 and the pIC50 (second compound 10 µM) was less than 5.00. The viability, T/C [1] was 106%, the viability, T/C [2] was 92.6% and the viability, T/C [3] was 99.3%. For the same compound, the viability, T/C [4] was 103%, the viability, T/C [5] was 109% and the viability, T/C [6] was 101%. For the same compound, the viability, T/C [7] was 103%, the viability, T/C [8] was 95.5% and the viability, T/C [9] was 101%. For the same compound, the viability, T/C [10] was 95.4%, the viability, T/C [11] was 112% and the viability, T/C [12] was 96.5%. For the same compound, the viability, T/C [13] was 108%, the viability, T/C [14] was 95.1% and the viability, T/C [15] was 102%. For the same compound, the viability, T/C [16] was 103%, the viability, T/C [17] was 104% and the viability, T/C [18] was 97.8%. It also gave a viability, T/C [19] of 89.3%, a viability, T/C [20] of 103% and a viability, T/C [21] of 93.4%. For the same compound, the viability, T/C [22] was 93.8%, the viability, T/C [23] was 100% and the viability, T/C [24] was 88.7%. It also gave a viability, T/C [25] of 89.1%, a viability, T/C [26] of 90.5% and a viability, T/C [27] of 85.6%. For the same compound, the viability, T/C [28] was 92.4%, the viability, T/C [29] was 92.1% and the viability, T/C [30] was 80.2%. It also gave a viability, T/C [31] of 64.6%, a viability, T/C [32] of 73.1% and a viability, T/C [33] of 84%. The viability, T/C [34] was 76%, the viability, T/C [35] was 79.3% and the viability, T/C [36] was 80.3%.
